Reference: paper PMC2139785 (The Journal of Cell Biology, 1997)

Molecular target: p62^cplx-associated PI3-kinase (100-kD catalytic subunit)
Experiment: PI3-kinase lipid kinase assay
Type: biochemical, Rattus norvegicus

In the case of `COC[C@H]1OC(=O)c2coc3c2[C@@]1(C)C1=C(C3=O)[C@@H]2CCC(=O)[C@@]2(C)C[C@H]1OC(C)=O` [wortmannin], the IC50 is reported as roughly 3.5 µM.
